# Source: patent US20060148858A1, “1, 2-Azole derivatives with hypoglycemic and hypolipidemic activity” (priority 2002, published 2006)
# Legend:
# PPARγ-RXRα heterodimer = target: T1, PPARγ-RXRα heterodimer (Homo sapiens, UniProt P37231); assay: PPARγ-RXRα heterodimer ligand activity, luciferase reporter in PPARγ:RXRα:4ERPP/CHO-K1 cells (Test Example 3); format: cell-based; settings: 18-48 hours, concentration for 50% of the maximum fold induction
# T1 construct: expressed in transfected cells; host or cells: CHO-K1
# T1 sequence (P37231 1-477 isoform P37231-2): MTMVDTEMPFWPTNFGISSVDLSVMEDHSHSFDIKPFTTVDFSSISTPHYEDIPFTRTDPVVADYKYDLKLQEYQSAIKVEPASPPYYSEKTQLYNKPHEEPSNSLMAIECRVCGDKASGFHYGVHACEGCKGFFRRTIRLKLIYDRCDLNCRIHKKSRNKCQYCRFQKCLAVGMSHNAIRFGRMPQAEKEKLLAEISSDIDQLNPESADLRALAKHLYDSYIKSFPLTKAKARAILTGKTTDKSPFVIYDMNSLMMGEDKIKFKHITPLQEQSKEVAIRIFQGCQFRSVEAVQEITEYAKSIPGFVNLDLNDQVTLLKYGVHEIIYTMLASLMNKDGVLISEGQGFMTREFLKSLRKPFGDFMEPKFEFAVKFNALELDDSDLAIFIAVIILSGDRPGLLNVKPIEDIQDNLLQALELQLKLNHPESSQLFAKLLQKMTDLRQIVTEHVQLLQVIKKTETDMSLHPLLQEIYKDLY
# T1 sequence (P19793 1-462 partner): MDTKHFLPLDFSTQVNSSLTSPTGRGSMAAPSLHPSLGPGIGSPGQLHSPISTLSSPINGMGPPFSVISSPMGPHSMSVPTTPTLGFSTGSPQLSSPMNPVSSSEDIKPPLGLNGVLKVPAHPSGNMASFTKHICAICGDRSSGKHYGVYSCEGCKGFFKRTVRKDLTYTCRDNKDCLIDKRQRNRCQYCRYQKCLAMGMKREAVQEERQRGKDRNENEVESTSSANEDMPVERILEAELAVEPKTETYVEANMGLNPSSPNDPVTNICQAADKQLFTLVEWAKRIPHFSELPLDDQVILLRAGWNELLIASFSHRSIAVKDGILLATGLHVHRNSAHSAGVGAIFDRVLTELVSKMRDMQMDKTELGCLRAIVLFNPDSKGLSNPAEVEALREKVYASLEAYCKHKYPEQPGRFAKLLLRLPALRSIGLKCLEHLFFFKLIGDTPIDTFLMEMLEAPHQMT
# Method: A PPARγ: RXRα: 4ERPP/CHO-K1 cells obtained in Reference Example 8a described later were cultured in HAM F12 medium (produced by Life Technologies, Inc., USA) containing 10% Fetal bovine serum (produced by Life Technologies, Inc., USA) and then inoculated to a 96-well white plate (produced by Corning Costar Corporation, USA) at the density of 2×10^4 cells/well, and cultured in a CO2 gas incubator at 37° C. overnight.
# After removing the medium from 96 well white plate, 80 μl of HAM F12 medium containing 0.1% fatty acid-free bovine serum albumin (BSA) and 20 μl of test compound were added, which was cultured in a CO2 gas incubator at 37° C. for 18-48 hours. After removing the medium, 40 μl of PIKKAGENE 7.5 (produced by Wako Pure Chemical Industries, Ltd.) diluted twice with HBSS (HANKS' BALANCED SALT SOLUTION)(produced by BIO WHITTAKER Inc., USA), was added. After stirring, the luciferase activity was determined using 1420 ARVO Multilabel Counter (produced by PerkinElmer Inc., USA).
# (§1) A fold induction was calculated based on the luciferase activity of each test compound by taking the luciferase activity in the non-treatment group as 1. The values of the test compound concentration and the fold induction were analyzed using PRISM (produced by GraphPad Software Inc. USA) to calculate the EC50 values, the effective concentration of a test compound for 50% of the maximum fold induction.
# After a CHO-K1 cell cultured in a 150 cm^2 cell culture flask (750 ml)(produced by Corning Costar Corporation, USA) containing HAM F12 medium (produced by Life Technologies, Inc., USA) supplemented with 10% Fetal Bovine Serum (produced by Life Technologies, Inc., USA) was scraped by treating with 0.5 g/L trypsin-0.2 g/L EDTA (ethylenediaminetetraacetic acid) (produced by Life Technologies, Inc., USA), the cell was washed with PBS (phosphate-buffered saline) (produced by Life Technologies, Inc., USA), centrifuged (1000 rpm, 5 minutes), and then suspended in PBS. Subsequently, a DNA was introduced into the cell under the condition shown below using GENE PULSER (produced by Bio-Rad Laboratories, USA).
# Namely, to a cuvette having a 0.4 cm gap, added were 8×10^6 cells and 10 μg of plasmid pVgRXR2-hPPARγ obtained in Reference Example 7a and 10 μg of reporter plasmid pGL3-4ERPP-TK neo obtained in Reference Example 5a, which was subjected to electroporation at the voltage of 0.25 kV under the capacitance of 960 μF. Subsequently, the cell was transferred into a HAM F12 medium containing 10% Fetal Bovine Serum and cultured for 24 hours and then the cell was scraped again and centrifuged, and then suspended in HAM F12 medium containing 10% Fetal Bovine Serum supplemented with 500 μg/ml of GENETICIN (produced by Life Technologies, Inc., USA) and 250 μg/ml of ZEOCIN (produced by Invitrogen, USA). The obtained suspension was diluted to the density of 10^4 cells/ml and inoculated to a 96-well plate (produced by Corning Costar Corporation, USA), which was cultured in a CO2 gas incubator at 37° C., whereby obtaining a GENETICIN- and ZEOCIN-resistant transformant.
# Subsequently, after the transformant cell line thus obtained was cultured in a 24-well plate (produced by Corning Costar Corporation, USA), selected was a cell line in which the luciferase was expressed and induced, i.e., PPARγ:RXRα:4ERPP/CHO-K1 cell by addition of 10 μM of pioglitazone hydrochloride.
# PPARδ-RXRα heterodimer = target: T2, PPARδ-RXRα heterodimer (Homo sapiens, UniProt Q03181); assay: PPARδ-RXRα heterodimer ligand activity, luciferase reporter in COS-1 transformant (Test Example 4); format: cell-based; settings: COS-1 transformant (hPPARδ, hRXRα, reporter), 36-48 hours, concentration for 50% of the maximum fold induction
# T2 construct: expressed in transfected cells; host or cells: COS-1
# T2 sequence (Q03181 1-441): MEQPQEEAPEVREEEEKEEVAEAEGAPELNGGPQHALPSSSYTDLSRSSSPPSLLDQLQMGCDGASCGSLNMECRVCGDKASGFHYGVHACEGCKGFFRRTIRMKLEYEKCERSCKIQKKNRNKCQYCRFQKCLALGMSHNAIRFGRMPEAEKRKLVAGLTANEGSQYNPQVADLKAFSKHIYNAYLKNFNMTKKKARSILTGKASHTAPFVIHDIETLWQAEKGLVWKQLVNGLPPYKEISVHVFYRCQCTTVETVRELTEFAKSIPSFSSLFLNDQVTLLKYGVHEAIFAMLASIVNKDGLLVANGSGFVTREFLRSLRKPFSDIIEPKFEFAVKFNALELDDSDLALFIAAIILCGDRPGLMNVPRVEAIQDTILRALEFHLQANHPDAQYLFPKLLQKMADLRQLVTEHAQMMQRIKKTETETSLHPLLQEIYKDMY
# T2 sequence (P19793 1-462 partner): T1 sequence (P19793 1-462 partner)
# Method: The transformant obtained in Reference Example 9a was suspended in DMEM medium (produced by Life Technologies, Inc., USA) containing 0.1% fatty acid-free bovine serum albumin (BSA) (produced by Wako Pure Chemical Industries, Ltd.), and inoculate to each well of a 96-well white plate (produced by Corning Costar Corporation, USA) by 80 μl at 1×10^4 cells/well. Then the test compound (20 μl) was added and cultured at 37° C. under 5% CO2 for 36-48 hours. After removing the medium from the 96-well white plate, 40 μl of PIKKAGENE LT 7.5 (produced by Wako Pure Chemical Industries, Ltd.) diluted twice with HBSS (HANKS' BALANCED SALT SOLUTION)(produced by BIO WHITTAKER Inc., USA), was added. After stirring, the luciferase activity was determined using 1420 ARVO Multilabel Counter (produced by PerkinElmer Inc., USA).
# as §1
# COS-1 cells were inoculated to a 150 cm^2 cell culture flask (produced by Corning Costar Corporation, USA) at the density of 5×10^6 cells/50 ml, and cultured at 37° C. under 5% CO2 conditions for 24 hours. Subsequently, a DNA was introduced into the cell under the condition shown below using Lipofectamine (produced by Invitrogen, USA).
# First, Lipofectamine (125 μl), PLUS Reagent (100 μl, produced by Invitrogen, USA), plasmid pMCMVneo-hPPARδ (2.5 μg) obtained in Reference Example 3a, plasmid pMCMVneo-hRXRα (2.5 μg) obtained in Reference Example 4a and reporter plasmid pGL3-4ERPP-TK neo (5 μg) obtained in Reference Example 5a, and pRL-tk (5 μg, produced by Promega, USA) were mixed with opti-MEM (5 ml, produced by Invitrogen, USA) to give a transfection mixture.
# Then, the above-mentioned transfection mixture and opti-MEM (20 ml) were added to COS-1 cells washed with opti-MEM, and the cells were cultured at 37° C. under 5% CO2 conditions for 3 hours. DMEM medium (25 ml, produced by Life Technologies, Inc., USA) containing 0.1% fatty acid-free bovine serum albumin (BSA) (produced by Wako Pure Chemical Industries, Ltd.) was added to the obtained COS-1 cells, and the cells were cultured at 37° C. under 5% CO2 conditions for 18-24 hours to give a transformant.
EC50 (PPARγ-RXRα heterodimer),melting point,EC50 (PPARδ-RXRα heterodimer),SMILES
21 nM,119 to 121 °C,–,"CCCc1nn(-c2ccc(C(F)(F)F)cn2)cc1CCCCn1cc(CCC(=O)O)c(-c2ccc(F)cc2)n1 [Example 77, 3-[3-(4-fluorophenyl)-1-(4-{3-propyl-1-[5-(trifluoromethyl)-2-pyridinyl]-1H-pyrazol-4-yl}butyl)-1H-pyrazol-4-yl]propanoic acid]"
42 nM,134 to 135 °C,–,COc1cccc(CC(=O)O)c1OCCCc1cn(-c2ccc(C(F)(F)F)cn2)nc1-c1ccccc1 [Example 196]
30 nM,106 to 107 °C,–,"CCCCc1nn(-c2ccc(C(F)(F)F)cn2)cc1CCCOc1ccccc1CC(=O)O [Example 198, [2-(3-{3-butyl-1-[5-(trifluoromethyl)-2-pyridyl]-1H-pyrazol-4-yl}propoxy)phenyl]acetic acid]"
–,116 to 117 °C,5.9 nM,"CCOc1ccc(CC(=O)O)cc1OCCCc1cn(-c2ccc(C(F)(F)F)cn2)nc1C(C)C [Example 200, [4-ethoxy-3-(3-{3-isopropyl-1-[5-(trifluoromethyl)-2-pyridyl]-1H-pyrazol-4-yl}propoxy)phenyl]acetic acid]"
–,124 to 125 °C,4.6 nM,"CCCc1nn(-c2ccc(C(F)(F)F)cn2)cc1CCCOc1cc(CC(=O)O)ccc1OCC [Example 204, [4-ethoxy-3-(3-{3-propyl-1-[5-(trifluoromethyl)-2-pyridyl]-1H-pyrazol-4-yl}propoxy)phenyl]acetic acid]"
16 nM,149 to 150 °C,–,"O=C(O)Cc1cccc(F)c1OCCCc1cn(-c2ccc(C(F)(F)F)cn2)nc1C1CCCCC1 [Example 210, [2-(3-{3-cyclohexyl-1-[5-(trifluoromethyl)-2-pyridyl]-1H-pyrazol-4-yl}propoxy)-3-fluorophenyl]acetic acid]"
–,134 to 135 °C,9.5 nM,"CCCc1cn(CC(=O)O)nc1OCCCc1cn(-c2ccc(C(F)(F)F)cn2)nc1OCC [Example 255, [3-(3-{3-ethoxy-1-[5-(trifluoromethyl)-2-pyridyl]-1H-pyrazol-4-yl}propoxy)-4-propyl-1H-pyrazol-1-yl]acetic acid]"
–,109 to 110 °C,5.5 nM,"CCCc1nn(-c2ccc(C(F)(F)F)cn2)cc1CCCOc1cccc(CC(=O)O)c1F [Example 258, [2-fluoro-3-(3-{3-propyl-1-[5-(trifluoromethyl)-2-pyridyl]-1H-pyrazol-4-yl}propoxy)phenyl]acetic acid]"
99 nM,161 to 162 °C,–,"COc1cccc(CC(=O)O)c1OCCCc1cn(-c2ccc([N+](=O)[O-])cn2)nc1C(C)C [Example 270, (3-methoxy-2-{3-[3-isopropyl-1-(5-nitro-2-pyridyl)-1H-pyrazol-4-yl]propoxy}phenyl)acetic acid]"
30 nM,–,–,"COc1cccc(CC(=O)O)c1OCCCc1cn(-c2ccc(C#N)cn2)nc1C(C)C [Example 271, (2-{3-[1-(5-cyano-2-pyridyl)-3-isopropyl-1H-pyrazol-4-yl]propoxy}-3-methoxyphenyl)acetic acid]"
–,134 to 135 °C,6 nM,"COc1cc(CC(=O)O)ccc1OCCCc1cn(-c2ccc(C(F)(F)F)cn2)nc1C(C)C [Example 278, [3-methoxy-4-(3-{1-[5-(trifluoromethyl)-2-pyridyl]-3-isopropyl-1H-pyrazol-4-yl}propoxy)phenyl]acetic acid]"
–,118 to 119 °C,5.1 nM,"COc1cc(CCC(=O)O)ccc1OCCCc1cn(-c2ccc(C(F)(F)F)cn2)nc1C(C)C [Example 279, 3-[3-methoxy-4-(3-{1-[5-(trifluoromethyl)-2-pyridyl]-3-isopropyl-1H-pyrazol-4-yl}propoxy)phenyl]propanoic acid]"
